For orientation: MIC means the smallest concentration in the dilution series that meets the test's criterion for growth inhibition. Read a high MIC as a less susceptible organism.

Eight molecules from ChEMBL document CHEMBL3352707, “Antimycobacterial activity of natural products and synthetic agents: pyrrolodiquinolines and vermelhotin as anti-tubercular leads against clinical multidrug resistant isolates of Mycobacterium tuberculosis” (Eur J Med Chem, 2015) can be followed below.

Values after ≈ are worked out from the molar mass of the structure shown. Bounds are passed on as bounds.

Assay type in all cases: functional
Assay [1] has as its system Mycobacterium tuberculosis. Description: Antimycobacterial activity against pyrazinamide-resistant Mycobacterium tuberculosis H37Rv ATCC 35828 after 7 days by microplate Alamar blue assay. The note with it: H37Rv ATCC 35828, 168 h.
Assay [2] has as its system Mycobacterium tuberculosis. Description: Antimycobacterial activity against Ethionamide-resistant Mycobacterium tuberculosis H37Rv ATCC 35830 after 7 days by microplate Alamar blue assay. To be noted: H37Rv ATCC 35830, 168 h. (In general: Alamar Blue is a resazurin reagent that responds to reducing activity.)
Assay [3] concerns Mycobacterium tuberculosis. Description: Antimycobacterial activity against isoniazid, rifampin, ethambutol, streptomycin, ofloxacin-resistant Mycobacterium tuberculosis after 7 days by microplate Alamar blue assay. The note with it: 168 h.
Assay [4] deals with Mycobacterium tuberculosis. Description: Antimycobacterial activity against isoniazid, rifampin, streptomycin-resistant Mycobacterium tuberculosis after 7 days by microplate Alamar blue assay. The note with it: 168 h.
Assay [5] deals with Mycobacterium tuberculosis. Description: Antimycobacterial activity against isoniazid, rifampin, ethambutol, ofloxacin-resistant Mycobacterium tuberculosis after 7 days by microplate Alamar blue assay. The note with it: 168 h.
For assay [6], the system named is Mycobacterium tuberculosis. Description: Antimycobacterial activity against isoniazid, rifampin, ethambutol, streptomycin-resistant Mycobacterium tuberculosis after 7 days by microplate Alamar blue assay. The note with it: 168 h.
The test system of assay [7] is Mycobacterium tuberculosis. Description: Antimycobacterial activity against isoniazid, rifampin, streptomycin, ofloxacin-resistant Mycobacterium tuberculosis after 7 days by microplate Alamar blue assay. To be noted: 168 h.
Assay [8] concerns Mycobacterium tuberculosis. Description: Antimycobacterial activity against isoniazid, rifampin, ethambutol-resistant Mycobacterium tuberculosis after 7 days by microplate Alamar blue assay. The note with it: 168 h.
Assay [9] deals with Mycobacterium tuberculosis. Description: Antimycobacterial activity against isoniazid, rifampin-resistant Mycobacterium tuberculosis after 7 days by microplate Alamar blue assay. To be noted: 168 h.

In the case of `CN1Cc2c(cn3c2ccc2ccccc23)-c2ccccc21`, the minimal inhibitory concentration (MIC) in [1] was determined as 3.1 µg/mL (≈ 10.9 µM); in assay [2] it was 6.2 µg/mL (≈ 21.8 µM).

As to `NNC(=O)c1ccncc1` [ISONIAZID], the minimal inhibitory concentration (MIC) in assay [3], in assay [4], in assay [5], in assay [6], in [7] and in assay [8] was not below 2 µg/mL in each case. The MIC in assay [9] was not below 2 µg/mL.

As to `C[n+]1cc2c(cn3c4ccccc4ccc23)c2ccccc21.[I-]`, the minimal inhibitory concentration (MIC) in [1] and in assay [2] was 6.2 µg/mL throughout.

For `CC[C@@H](CO)NCCN[C@@H](CC)CO` [ETHAMBUTOL], the MIC is not below 8 µg/mL in assay [3]; not above 2 µg/mL in [4]; not below 8 µg/mL in assay [5]; not below 8 µg/mL in [6]; not above 2 µg/mL in [7]; not below 8 µg/mL in assay [8]. In [9], the MIC was not above 2 µg/mL.

In the case of `CO[C@H]1/C=C/O[C@@]2(C)Oc3c(C)c(O)c4c(O)c(c(/C=N/N5CCN(C)CC5)c(O)c4c3C2=O)NC(=O)/C(C)=C\C=C\[C@H](C)[C@H](O)[C@@H](C)[C@@H](O)[C@@H](C)[C@H](OC(C)=O)[C@@H]1C` [RIFAMPIN], the minimal inhibitory concentration (MIC) in assay [3], in assay [4], in assay [5], in assay [6], in assay [7] and in [8] was not below 2 µg/mL throughout. In [9], this molecule had an MIC not below 2 µg/mL.

In the case of `C/C=C/C1=CC=C/C(=C2\C(=O)CNC2=O)O1` [VERMELHOTIN], the results for the MIC in [1] and in [2] were 6.2 µg/mL (≈ 28.5 µM) and 3.1 µg/mL (≈ 14.3 µM), respectively.

Consider `CC1COc2c(N3CCN(C)CC3)c(F)cc3c(=O)c(C(=O)O)cn1c23` (stereo unspecified) [OFLOXACIN], for which the minimum inhibitory concentration (MIC) is not below 4 µg/mL in assay [3]; not above 2 µg/mL in assay [4]; not below 4 µg/mL in assay [5]; not above 2 µg/mL in assay [6]; not below 4 µg/mL in assay [7]; not above 2 µg/mL in assay [8]. This molecule registered a minimal inhibitory concentration (MIC) in assay [9] not above 2 µg/mL.

For the molecule `CN[C@@H]1[C@H](O[C@H]2[C@H](O[C@H]3[C@H](O)[C@@H](O)[C@H](N=C(N)N)[C@@H](O)[C@@H]3N=C(N)N)O[C@@H](C)[C@]2(O)C=O)O[C@@H](CO)[C@H](O)[C@H]1O` [STREPTOMYCIN], the MIC in assay [3] was not below 8 µg/mL; in assay [4], not below 8 µg/mL; in assay [5], not above 2 µg/mL; in assay [6], not below 8 µg/mL; in assay [7] it was not below 8 µg/mL; in [8], not above 2 µg/mL. Moreover, the MIC in assay [9] is not above 2 µg/mL.
